Converted amounts (≈) assume the structure as drawn. Like-named read-outs stand apart in the source and are kept apart here.
What was measured:
[1] = system: Escherichia coli (ATCC 25922); experiment: Dose-fractionation study in a one-compartment in vitro infection model; type: cell-based
Procedure: (§1) A dose-fractionation study was conducted utilizing a wild-type strain of Escherichia coli (ATCC 25922; fosfomycin MIC=0.5 mg/L agar; 1 mg/L broth microtiter) in a one-compartment in vitro infection model where the human drug concentration-time profile was simulated over a 24 hour study period.
In such a circumstance, one way to overcome the poor sensitivity of the susceptibility test method is to increase the inoculum size and/or the volume of test system. The one-compartment in vitro infection model is a much more sensitive tool to measure the drug concentration required to inhibit a clinically relevant bacterial inoculum owing to its ability accommodate a higher inoculum and the larger volume (125 mL) of the test system. For this reason, dose-fractionation studies were conducted using a one-compartment in vitro infection model to identify the PK-PD measure most closely associated with efficacy.
(§2) Note the relatively stronger relationship between the change in bacterial density and AUC0-24:RIC ratio and % T>RIC compared with that for Cmax:RIC ratio, where RIC is the concentration needed to inhibit the fosfomycin-resistant subpopulation.

[2] = system: fosfomycin-resistant E. coli subpopulation (ATCC 25922); experiment: Susceptibility (agar MIC, RIC) of the inherently fosfomycin-resistant subpopulation; type: cell-based, Escherichia coli; details: resistant subpopulation within the standard starting inoculum 5×10^5 CFU/mL
Procedure: RIC as used herein refers to the resistant inhibitory concentration and identifies the concentrations of antimicrobial required to inhibit the less susceptible or ‘resistant’ mutant subpopulation of organisms. RIC is a new term coined by the inventors of the present invention and is utilized throughout the specification herewith.
(§3) Another reason may be the volume of the micro-titer well (100-200 μL) used in the test method is small, containing 50,000-100,000 CFU. The inherently fosfomycin-resistant subpopulation has a frequency of 1 in 350,000 CFU. Thus, for fosfomycin, the standard susceptibility test method is an insensitive measure of the drug concentration required to inhibit a clinically relevant bacterial inoculum.
as §2

[3] = system: Escherichia coli (ATCC 25922); experiment: Susceptibility test (MIC) of fosfomycin against wild-type Escherichia coli; type: cell-based
Procedure: MIC as used herein refers to the minimum inhibitory concentration (MIC) of an antimicrobial that will inhibit the visible growth of a microorganism after overnight incubation. MICs are important in diagnostic laboratories to confirm resistance of microorganisms to an antimicrobial agent and also to monitor the activity of new antimicrobial agents. A MIC is generally regarded as the most basic laboratory measurement of the activity of an antimicrobial agent against an organism. Clinically, the MICs are used not only to determine the amount of antibiotic that a patient will receive but also the type of antibiotic used, which in turn lowers the opportunity for microbial resistance to specific antimicrobial agents. Applying MIC testing to a number of bacterial strains in the same species provides an estimate of the concentration that inhibits 50% (MIC50) and 90% (MIC90) of bacterial isolates and can indicate shifts in susceptibility of bacterial populations to antibiotics.
as §1, §3

[4] = system: Escherichia coli ATCC 25922; experiment: Neutropenic murine-thigh infection model; type: in vivo; details: neutropenic mice
Procedure: In vivo animal studies utilizing the neutropenic murine-thigh model were conducted to confirm key results obtained from the in vitro PK-PD infection models. Initial goals of the studies were to confirm the presence of a clinically-relevant fosfomycin-resistant subpopulation in vivo and to confirm % T>RIC was the PK-PD measure that predicted response.
In brief, six-week-old specific-pathogen-free female CD1 (ICR/Swiss) mice were rendered neutropenic by two intra-peritoneal injections of cyclophosphamide, 150 mg/kg of body weight 4 days prior to the study and 100 mg/kg 1 day prior to the study. The challenge isolate was Escherichia coli ATCC 25922 (fosfomycin MIC, 1 mg/L), which was the same strain used in the aforementioned in vitro PK-PD infection model studies. […]
To determine which PK-PD measure best described efficacy, the number of bacteria in the thigh at the end of 24 hours of therapy (or earlier for some of the lowest doses) was correlated with 1) the Cmax:MIC ratio, 2) the 24-hour AUC0-24:MIC ratio, 3) the percentage of the dosing interval during that serum concentrations exceed the MIC, and 4) the percentage of the dosing interval during that serum concentrations exceed the RIC for each of the dosage regimens studied. […] The correlation between efficacy and each of the […] PK-PD indices was determined by nonlinear least-squares multivariate regression. […]

C[C@@H]1O[C@@H]1P(=O)(O)O [fosfomycin]
relation of bacterial killing to dosing interval ([1]; at maximally effective AUC0-24:RIC ratios and free-drug % T>RIC, 24 hour): as the duration of the dosing interval decreases, the amount of bacterial killing increases
range of the change in bacterial density at 24 hours between regimens ([1]; regimens identical in total daily dose and % T>MIC (100%), differing in dosing interval, simulated human concentration-time profile): 8 log10
MIC ([2]; Escherichia coli, ATCC25922, agar): 32 to 64 µg/mL
agar MIC of the fosfomycin-resistant subpopulation ([2]; agar): 32 µg/mL
MIC ([3]; ATCC25922, E. coli ATCC 25922 challenge isolate, method not stated, read-out: fosfomycin MIC of the challenge isolate): 1 µg/mL
MIC ([3]; ATCC25922, agar, wild-type E. coli ATCC 25922, read-out: fosfomycin MIC (agar)): 0.5 µg/mL (≈ 3.62 µM)
MIC ([3]; ATCC25922, broth microtiter, wild-type E. coli ATCC 25922, read-out: fosfomycin MIC (broth microtiter)): 1 µg/mL (≈ 7.24 µM)
density of the drug-resistant subpopulation in the thighs after 24 hours of therapy ([4]; dose range 1.56 to 400 mg/kg every 3 hours): eliminated at the highest dose-level
PK-PD measure correlated with change in log10 CFU in the thighs after 24 hours of therapy ([4]; dosing intervals of 3, 6, 12, and 24 hours): % T>RIC was well-correlated with change in bacterial density
